Measurements: patent publication US10125135B2, “Chemical compounds” (AstraZeneca AB, priority 2016, dated 2018)

What was measured:
[1] = target: estrogen receptor (ERα) in CAMA-1 human breast cancer cell line (Homo sapiens (Human), UniProt P03372); assay: Western blotting assay, CAMA-1 cells; assay type: cell-based; conditions: 100 nM compound, 48 h; normalised to vehicle (0%) and 100 nM fulvestrant (100%)
Experimental: The ability of compounds to down-regulate estrogen receptor (ER) was assessed by western blotting using human breast cancer cell lines (MCF-7 and CAMA-1). Cells were plated into 12-well tissue culture-treated plates at 0.5×10^6/well in phenol red-free RPMI containing 2 mM L-glutamine and 5% (v/v) charcoal treated foetal calf serum (F6765, Sigma). Cells were incubated with compounds (100 nM) or vehicle control (0.1% DMSO) for 48 h at 37° C., 5% CO2 before washing once with PBS and lysing with 80 μl lysis buffer (25 mM Tris/HCl, 3 mM EDTA, 3 mM EGTA, 50 mM NaF, 2 mM sodium orthovanadate, 0.27 M sucrose, 10 mM β-glycerophosphate, 5 mM sodium pyrophosphate, 0.5% TritonX-100, pH 6.8) on ice.
Cells were scraped, sonicated and centrifuged prior to performing a protein assay (DC Bio-Rad Protein kit, 500-0116) and making samples to a protein concentration of 1-2 mg/m1 in lysis buffer containing 1× LDS Sample Buffer (NP0007, Invitrogen) and 1× NuPAGE sample reducing agent (NP0009, Invitrogen). Samples were boiled for 10 min at 95° C. and then frozen at −20° C. until ready for use.
10-20 μg protein was loaded onto 26-well Criterion gels (BioRad 345-0034). Gels were run at 125 V for 1 hr 25 min in running buffer (24 mM Tris Base Sigma, 192 mM Glycine, 3.5 mM SDS, made up in distilled water). Gels were then transferred at 30V for 2 hr in transfer buffer (25 mM Tris, 192 mM Glycine, 20% (v/v) methanol, pH 8.3, made up in distilled water) onto nitrocellulose membrane. The blot was stained with Ponceau S (P7170, Sigma) and cut according to appropriate molecular weight markers.
Membranes were blocked for 1 hour at room temp in 5% Marvel (w/v) in phosphate-buffered saline containing 0.05% Tween™ 20 (PBS/Tween). Blots were then incubated with anti-ERα (SP1) rabbit monoclonal antibody (Thermofisher) diluted 1:1000 at 4° C. overnight (with gentle shaking) followed by several washes with PBS/Tween. Secondary anti-rabbit HRP antibody (7074, CST) diluted 1:2000 dilution was incubated for 2 h at room temperature (with gentle shaking) followed by several washes with PBS/Tween. All antibodies were made up in 5% Marvel (w/v) in PBS/Tween.
The immunoblots were developed using Pierce WestDura chemiluminescent reagents (Thermo Scientific 34076) and developed/quantified on the G-box using Syngene software. Down-regulation of the ERα receptor was normalised to the vehicle control (0% down-regulation) and the 100 nM fulvestrant control (100% down-regulation) run within the same gel.

[2] = logD shake flask, 1-octanol/aqueous buffer; assay type: physicochemical; conditions: pH 7.4
Description: The lipophilicity of a drug is an important physical property which may influence many biological and metabolic properties of a compound. The distribution coefficient between 1-octanol and aqueous buffer, Log DO/W, at pH 7.4, is the most commonly used measurement of the lipophilicity of a compound. The current method for measurement of Log DO/W is based on the traditional shake flask technique, but with the modification of measuring compounds in mixtures of ten at a time using UPLC with quantitative mass spectrometry (MS) as a method to measure the relative octanol and aqueous concentrations. […] An additional QC sample Caffeine, with low Log D, are used and randomly placed in all runs. The method has been thoroughly validated against the previous shake flask methodologies.

[3] = Human plasma protein binding, equilibrium dialysis (RED); assay type: in vitro ADME; conditions: dialysis for 18 hours
Experimental: Human Plasma Protein Binding
The automated equilibrium dialysis assay in human plasma uses the RED (Rapid Equilibrium Dialysis) Device and sample handling. The assay generally runs over two to three days including delivery of results. After dialysis for 18 hours, plasma and buffer samples are prepared for analysis by liquid chromatography and mass spectrometry. Samples are generally tested in singlicates and quantified by LC/MSMS by using a 7-point calibration curve in plasma. The compounds are pooled together in plasma pools up to 10 compounds. Three reference compounds are used in each run, Propranolol, Metoprolol and Warfarin. Warfarin is used as a control in each pool and Propranolol and Metoprolol are placed randomly in each run. An in-house Excel macro is used for preparation of files for the robot and the mass spectrometer and also used for the calculations of fraction unbound (fu %) in plasma.

Chain of estrogen receptor (ERα) in CAMA-1 human breast cancer cell line (P03372 whole entry): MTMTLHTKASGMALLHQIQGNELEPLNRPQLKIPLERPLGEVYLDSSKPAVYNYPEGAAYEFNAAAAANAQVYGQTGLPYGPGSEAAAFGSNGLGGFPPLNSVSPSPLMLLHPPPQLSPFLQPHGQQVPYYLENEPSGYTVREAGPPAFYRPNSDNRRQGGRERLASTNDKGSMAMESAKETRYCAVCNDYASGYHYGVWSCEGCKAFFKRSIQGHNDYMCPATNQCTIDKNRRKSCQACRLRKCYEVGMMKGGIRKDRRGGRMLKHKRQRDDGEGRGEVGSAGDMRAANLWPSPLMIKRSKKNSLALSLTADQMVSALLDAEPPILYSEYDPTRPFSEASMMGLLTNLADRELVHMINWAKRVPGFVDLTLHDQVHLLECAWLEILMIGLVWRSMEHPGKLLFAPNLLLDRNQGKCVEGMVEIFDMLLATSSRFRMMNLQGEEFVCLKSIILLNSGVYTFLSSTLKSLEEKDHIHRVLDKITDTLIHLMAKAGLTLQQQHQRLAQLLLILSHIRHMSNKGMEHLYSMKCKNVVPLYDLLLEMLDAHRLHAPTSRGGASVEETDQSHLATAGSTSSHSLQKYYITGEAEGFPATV

SMILES | CAMA1 Western % ER deg vs Fv [1] | logD [2] | Human plasma protein binding (% free) [3]
COc1cc(OCCN2CC(CF)C2)ccc1[C@@H]1c2ccc3[nH]ncc3c2C[C@@H](C)N1CC1(F)CC1 [Example 6, (6S,8R)-7-((1-fluorocyclopropyl)methyl)-6-(4-(2-(3-(fluoromethyl)azetidin-1-yl)ethoxy)-2-methoxyphenyl)-8-methyl-6,7,8,9-tetrahydro-3H-pyrazolo[4,3-f]isoquinoline] | 87% | 2.8 | 21 % free
COc1cc(OCCN2CC(CF)C2)ccc1[C@@H]1c2ccc3[nH]ncc3c2C[C@@H](C)N1CC(C)(C)F [Example 5, (6S,8R)-7-(2-fluoro-2-methylpropyl)-6-(4-(2-(3-(fluoromethyl)azetidin-1-yl)ethoxy)-2-methoxyphenyl)-8-methyl-6,7,8,9-tetrahydro-3H-pyrazolo[4,3-f]isoquinoline] | 74% | 3.5 | 6.2 % free
C[C@@H]1Cc2c(ccc3[nH]ncc23)[C@@H](c2ccc(OCCN3CC(CF)C3)cn2)N1CC(F)(F)F [Example 49, (6S,8R)-6-(5-(2-(3-(fluoromethyl)azetidin-1-yl)ethoxy)pyridin-2-yl)-8-methyl-7-(2,2,2-trifluoroethyl)-6,7,8,9-tetrahydro-3H-pyrazolo[4,3-f]isoquinoline] | 77% | 3 | 23 % free
C[C@@H]1Cc2c(ccc3[nH]ncc23)[C@@H](c2ccc(OCCN3CC(CF)C3)cn2)N1CC(F)F [Example 51, (6S,8R)-7-(2,2-difluoroethyl)-6-(5-(2-(3-(fluoromethyl)azetidin-1-yl)ethoxy)pyridin-2-yl)-8-methyl-6,7,8,9-tetrahydro-3H-pyrazolo[4,3-f]isoquinoline] | 82% | 2.4 | 49 % free
C[C@@H]1Cc2c(ccc3[nH]ncc23)[C@@H](c2ccc(OCCN3CC(CF)C3)cn2)N1CC1(F)CC1 [Example 8, (6S,8R)-7-((1-fluorocyclopropyl)methyl)-6-(5-(2-(3-(fluoromethyl)azetidin-1-yl)ethoxy)pyridin-2-yl)-8-methyl-6,7,8,9-tetrahydro-3H-pyrazolo[4,3-f]isoquinoline] | 86% | 2.6 | 34 % free
COc1cc(OCCN2CC(CF)C2)ccc1[C@@H]1c2ccc3[nH]ncc3c2C[C@@H](C)N1CC(C)C [Example 9, (6S,8R)-6-(4-(2-(3-(fluoromethyl)azetidin-1-yl)ethoxy)-2-methoxyphenyl)-7-isobutyl-8-methyl-6,7,8,9-tetrahydro-3H-pyrazolo[4,3-f]isoquinoline] | 81% | 2.4 | 52 % free
